# From patent US20180346502A1, “Processes for the Preparation of SGLT-2 Inhibitors, Intermediates Thereof” (Emmennar Pharma Private Limited, priority 2017, published 2018)
# Experiment: Storage stability of amorphous empagliflozin at 5±3°C (HPLC chemical purity, PXRD)
# Format: physicochemical
# Conditions: for Chemical Purity (HPLC) / PXRD: Temp = 5 ± 3° C.
# Experimental: • (a) (1S)-1,5-anhydro-1-C-[4-chloro-3-[[4-[[(3S)-tetrahydro-3-furanyl]oxy]phenyl]methyl]phenyl]-D-glucitol, i.e., empagliflozin (amorphous) • Apparatus: A liquid chromatographic system is to be equipped with variable • wavelength UV-Detector and Integrator. • Column: Promosil C18, 250×4.6 mm, 100 A°, 5 μm or equivalent • Column Temperature: 40° C. • Wavelength: 225 nm • Flow rate: 1.2 mL/min • Injection volume: 5 μL • Run Time: 60 min • Elution: Gradient • Diluent: Acetonitrile: Water (50:50 v/v) • Mobile phase A: Buffer solution • Mobile phase B: Acetonitrile: Water (95:5 v/v) • Buffer solution: Transfer accurately about 1 mL of ortho phosphoric acid into 1000 mL of milli-Q water, filter through 0.45 μm nylon membrane and sonicate to degas. • (b) Amorphous solid dispersion of empagliflozin and ethyl cellulose (EC) • Chromatographic conditions are same as given under (a). • (c) Amorphous solid dispersion of empagliflozin and hydroxypropyl cellulose (HPC) • Chromatographic conditions are same as given under (a), except for: • Wavelength: 220 nm • Column temperature: 35° C. • Mobile Phase B: Acetonitrile: Water (90:10 v/v) • (d) (1S)-1,5-anhydro-1-C-[4-chloro-3-[(4-ethoxyphenyl)methyl] phenyl]-D-glucitol i.e., dapagliflozin • Chromatographic conditions are same as given under (a), except for: • Column temperature: 35° C. • Run Time: 55 min • Mobile Phase B: Acetonitrile: Water (90:10 v/v)
# The diffraction patterns were measured using Bruker D2 PHASER diffractometer equipped with LYNXEYE™ detector, used radiation Cu Kα (λ=1.54060 Å), excitation voltage: 30 kV, anode current: 10 mA, measured range: 3-40° 2θ, increment: 0.01° 2θ.
smiles,measurement,setting,value
"OC[C@H]1O[C@@H](c2ccc(Cl)c(Cc3ccc(O[C@H]4CCOC4)cc3)c2)[C@H](O)[C@@H](O)[C@@H]1O [Empagliflozin, (1S)-1,5-anhydro-1-C-[4-chloro-3-[[4-[[(3S)-tetrahydro-3-furanyl]oxy]phenyl]methyl]phenyl]-D-glucitol]",Chemical Purity (HPLC),Stability period 1 month,99.90
same,PXRD,Stability period 1 month,Amorphous
same,Chemical Purity (HPLC),Stability period 3 months,99.88
same,PXRD,Stability period 3 months,Amorphous
same,Chemical Purity (HPLC),Stability period 6 months,99.89
same,PXRD,Stability period 6 months,Amorphous
same,Chemical Purity (HPLC),Stability period 12 months,99.88
same,PXRD,Stability period 12 months,Amorphous
same,Chemical Purity (HPLC),Stability period Initial,99.88
same,PXRD,Stability period Initial,Amorphous
same,stable on storage (period),storage at 5±3° C.,12 months
